Where “and” joins values, the source holds several entries; their conditions need not be identical. Equal values may be shown once. Where a name gives a salt, the structure may show the parent alone. Read-outs that look alike come from different tables or passages of the source.

The source of these data is patent publication US7635423B2, “Redox potential mediated, heterogeneous, carbon nanotube biosensing” (E. I. du Pont de Nemours and Company, priority 2004, dated 2009).

Series [1] relates to Trametes versicolor laccase. Kind of series: Laccase assay: ABTS^−2 oxidation followed at 436 nm, with and without NaF. It counts as biochemical. As to conditions: 1 mM NaF; 5 mM ABTS^−2; 50 mM Glycine pH 3.0. The method, then:
A stock solution of Trametes versicolor laccase (4.8 mg/ml) was diluted 200,000-fold into 50 mM Glycine, pH 3.0. At time zero, ABTS^−2 (2,2′-azino-bis(3-ethylbenzthiazoline-6-sulfonate) diammonium salt was added at a concentration of 5 mM and the oxidation of ABTS^−2 was followed by monitoring the absorbance change at 436 nm. Shown in FIG. 12 is the result of the laccase assay in the presence and absence of 1 mM NaF. The latter inhibits the laccase activity by 95%.

Series [2] has as its system surface-attached oligo 29 (complementary) vs oligo 28 (non-complementary). Briefly: Detection of DNA hybridization by CNT device (current vs time at Vg=−0.4 V). As to conditions: 30 μM ABTS^−2, 50 mM glycine pH 3, adduct 50 nM (in DNA). The method, then:
Detection of DNA hybridization in a CNT device was assayed as diagramed in FIG. 17. […] In the diagram, two electrodes are indicated, one source electrode (10) and one drain electrode (20), where the electrodes are connected by an electrically conducting path comprising at least one semiconducting carbon nanotube (30). A third electrode (40) generates an electric field to gate the conductance of the CNT. Nucleic acid molecules, functioning as capture moieties (220) are attached to a surface (60) through a silyl butyraldehyde attachment group (230). An oligonucleotide (260) that hybridizes to the capture moiety nucleic acid is attached to the enzyme laccase (270). Laccase oxidizes ABTS^−2 (2,2′ azino-di-(3-ethylbenzthiazoline-sulfonate) at the expense of O2, transferring 4 electrons from 4ABTS^−2 to O2, producing 4ABTS^−1 and H2O. Thus the redox potential of the redox effector (ABTS^−2/ABTS^−1) in solution becomes more positive. This change in effector redox potential oxidizes the CNTs, increasing their p-type conductance. […]
Electron transport through the CNT was first recorded in the 50 mM glycine pH=3 buffer and immediately after flowing 30 μM ABTS^−2 in the same buffer into the flow cell. […]

Series [3] has as its system Trametes versicolor laccase. Kind of series: Laccase inhibitor kinetics: rate of ABTS^−2 oxidation at varied inhibitor and substrate concentrations. Format: biochemical. Here is the method: High potential quinones/quinols were screened to identify those with characteristics that would be suitable for use as an inhibitor of laccase, to be used in an activity switch.
Compounds were evaluated by varying the concentrations of inhibitor and substrate (ABTS^−2) and measuring under each condition the rate of ABTS^−2 oxidation. […] Tetrachloro-o-quinol and tetrafluoro-o-quinol, shown in Diagram I, had Kds, of 7-9 μM and 2.5 μM, respectively, as determined from the data in FIG. 20.
[…]

Series [4] relates to laccase (Type I copper center). Kind of series: Laccase 600 nm absorbance peak on inhibitor binding. Also noted: species or system Trametes versicolor. From the text: This conclusion was strengthened by the observation that the binding of tetrachloro-o-quinol to laccase caused a decrease in the amplitude of the laccase 600 nm absorbance peak, dominated by a charge-transfer band involving the Type I copper center and its cysteinyl ligand.

Series [5] deals with surface-bound oligonucleotide 51. Kind of series: Fluorescence signals following hybridization to surface bound oligo. It counts as binding. The conditions noted are these: camera exposure 30 s. The method, then:
To increase the specificity of hybridization, the chips were incubated with Sigma #6429 1× Blocking buffer for 1 h. Excess blocking solution was removed by rinsing with 50 mM Na Acetate pH 5.0 plus 100 mM Na2SO4. Surface-bound oligonucleotide 51 was hybridized separately to: • 1) Oligonucleotide 52 (SEQ ID NO:4), acting as a target sequence, hybridized to oligonucleotide 54 (SEQ ID NO:5). Oligonucleotide 54 has 18 nucleotides complementary to the 3′ end of the target oligonucleotide 52 and a fluorescent tag, Alexa Fluor 546, at its 5′ end. Oligonucleotide 52 has at its 5′ end 18 nucleotides complementary to oligonucleotide 51. • 2) Oligonucleotide 52 (SEQ ID NO:4), acting as a target sequence, hybridized to oligonucleotide 50 (SEQ ID NO:5). Oligonucleotide 50 has the same nucleotide sequence as oligonucleotide 54 and was attached to laccase enzyme (lac/oligo 50) as described below in Example 13, This oligonucleotide also has a Cy3 tag at its 3′ end. All oligonucleotides were purchased from Integrated DNA Technologies, Inc. (Coralville, Iowa). Oligos 52 and 54 in (1), and oligos 52 and 50 in (2) were prehybridized in 50 mM Na Acetate pH 5.0 plus 100 mM Na2SO4 for 10 min at 50° C., then allowed to cool to room temperature before adding to the chip with oligo 51.
Hybridizations of the surface bound probe, oligo 51, with the samples listed above were carried out in 50 mM Na Acetate pH 5.0 plus 100 mM Na2SO4. Unbound oligonucleotides were removed by rinsing with Washing Buffer A (Arraylt, Telechem International Inc., Sunnyvale, Calif.). Where a laccase/DNA adduct was used for hybridization, 50 mM Na Acetate pH 5.0 plus 100 mM Na2SO4 was used for the wash. After washing, the chip was covered with a cover slip and observed using a fluorescence microscope. The extent of hybridization was evaluated by measuring fluorescence emission from fluorescent-tagged oligonucleotides attached or not to laccase.
Results of fluorescent signals following hybridizations in 1) and 2) above, using different concentrations of oligos as listed, are given in Table 1. […]

The mark [6] stands for this setting: plots of reciprocal rate vs inhibitor concentration, FIG. 20, read-out: Kd (dissociation constant of the inhibitor, -Ki intersection).

Regarding `[F-].[Na+]` [NaF], the “inhibition of laccase activity” value in series [1] was found to be 95%.
On to “oligo28/laccase adduct: oligo 28 (SEQ ID NO:1) attached via 5′ hydrazide to periodate-treated Trametes versicolor laccase (CGCTGTGATGGTGGCCCC; Laccase enzyme attached through a 5' hydrazide, further chemistry not given here)”, for which, in series [2], the “increase in current, complementary vs non-complementary surface oligonucleotide” value was 3.5 fold.
Broadly, the Kd is a measure of binding affinity in units of concentration. For `Oc1c(O)c(F)c(F)c(F)c1F` [tetrafluoro-o-quinol], in series [3] (setting [6]), the Kd came to 2.5 µM.
On to `CCn1c(=NN=c2sc3cc(S(=O)(=O)O)ccc3n2CC)sc2cc(S(=O)(=O)O)ccc21` [ABTS^−2, 2,2′-azino-bis(3-ethylbenz-thiazoline-6-sulfonate) diammonium salt, reference compound], for which, in series [3] (substrate of laccase, read-out: dissociation constant, Kd of the laccase substrate), the Kd lay within 120 to 240 µM.
Regarding `Oc1c(Cl)c(Cl)c(O)c(Cl)c1Cl` [tetrachloro-p-quinol], in series [3], the “activity as an inhibitor of laccase” value is “inactive”.
In the case of `Oc1c(O)c(Cl)c(Cl)c(Cl)c1Cl` [Tetrachloro-o-quinol], in series [3], the “activity as an inhibitor of laccase” value is “effective inhibitor”. Also, the Kd in series [3] (setting [6]) fell in the range of 7 to 9 µM. Besides, in series [4], the “amplitude of the laccase 600 nm absorbance peak on binding” value is recorded as “decrease”.

B1: Oligo52 + Oligo54: target oligonucleotide 52 (SEQ ID NO:4) prehybridized to oligonucleotide 54 (SEQ ID NO:5) with 5′ Alexa Fluor 546 tag (nucleic acid)
chain 1: GGGGCCACCATCACAGCGTTTTTTTTTTGGGGCCACCATCACAGCG
chain 2: CGCTGTGATGGTGGCCCC
modifications: Second strand carries a 5' Alexa Fluor 546 label, further chemistry not given here; the letters are possibly those of the target site
In the case of B1, the Relative signal amplitude was 39 and 50 in series [5] (1 nM); 940 and 990 in series [5] (10 nM); 1140 and 1690 in series [5] (100 nM).
